This passage reports MIC, Time and Activity results from ChEMBL document CHEMBL4613212, “Insights of synthetic analogues of anti-leprosy agents” (Bioorg Med Chem, 2019).

Molecules are shown by their SMILES. Values after ≈ are worked out from the molar mass of the structure shown.

As usually defined, the MIC is the lowest concentration found to suppress growth. Read a low MIC as a more susceptible organism.

Holding throughout (type): functional
The subject of test [1] is Enterococcus faecalis. The test can be described thus: Antimicrobial activity against Enterococcus faecalis ATCC 29212 by broth microdilution assay. (In general: Broth dilution looks for growth in wells or tubes with falling amounts of substance.)
Test [2] relates to Staphylococcus aureus. As to the kind of experiment: Antimicrobial activity against Staphylococcus aureus ATCC 25923 by broth microdilution assay.
Test [3] deals with Enterococcus faecalis. The test can be described thus: Antimicrobial activity against Enterococcus faecalis ATCC 51922 by broth microdilution assay.
The subject of test [4] is Listeria monocytogenes. As to the kind of experiment: Antimicrobial activity against Listeria monocytogenes ATCC 1911 by broth microdilution assay.
The test system of test [5] is Klebsiella pneumoniae. As to the kind of experiment: Antimicrobial activity against Klebsiella pneumoniae 700603 by broth microdilution assay.
The test system of test [6] is Pseudomonas aeruginosa. The test can be described thus: Antimicrobial activity against Pseudomonas aeruginosa ATCC 27853 by broth microdilution assay.
Test [7] has as its system Escherichia coli. As to the kind of experiment: Antimicrobial activity against Escherichia coli ATCC 35218 by broth microdilution assay.
In test [8] the test system is Escherichia coli. The test can be described thus: Antimicrobial activity against Escherichia coli ATCC 25922 by broth microdilution assay.
Test [9] concerns Mycobacterium tuberculosis. As to the kind of experiment: Antitubercular activity against Mycobacterium tuberculosis H37Rv ATCC 27294 incubated for 7 days by microplate alamar blue assay. As to conditions: H37Rv ATCC 27294, 168 h.
Test [10] deals with Nakaseomyces glabratus. The test can be described thus: Antifungal activity against Candida glabrata.
The test system of test [11] is Mycobacterium leprae. The test can be described thus: Anti-leprotic activity against Mycobacterium leprae infected in BALB/c mouse assessed as time delay in bacterial multiplication in footpad at 0.011 g/100g of diet administered via feed starting 60 or 75 day post infection up to 90 days by Shepard's kinetic method.
The subject of test [12] is Mycobacterium leprae. As to the kind of experiment: Anti-leprotic activity against Mycobacterium leprae infected in BALB/c mouse assessed as time delay in bacterial multiplication in footpad at 0.008 g/100g of diet administered via feed starting 60 or 75 day post infection up to 90 days by Shepard's kinetic method.
Test [13] concerns Mycobacterium leprae. As to the kind of experiment: Anti-leprotic activity against Mycobacterium leprae infected in BALB/c mouse assessed as time delay in bacterial multiplication in footpad at 0.012 g/100g of diet administered via feed starting 60 or 75 day post infection up to 90 days by Shepard's kinetic method.
Test [14] concerns Mycobacterium leprae. The test can be described thus: Anti-leprotic activity against Mycobacterium leprae primary cultures at 4 weeks assessed as ATP level per 10^7 cells at 0.5 mg/L measured by bioluminescence assay (reference value: 314 +/- 46 pg).
Test [15] deals with Mycobacterium leprae. As to the kind of experiment: Anti-leprotic activity against Mycobacterium leprae primary cultures at 4 weeks assessed as ATP level per 10^7 cells at 1.0 mg/L measured by bioluminescence assay (reference value: 314 +/- 46 pg).
The subject of test [16] is Mycobacterium leprae. As to the kind of experiment: Anti-leprotic activity against Mycobacterium leprae primary cultures at 4 weeks assessed as ATP level per 10^7 cells at 5.0 mg/L measured by bioluminescence assay (reference value: 314 +/- 46 pg).
The subject of test [17] is Mycobacterium leprae. As to the kind of experiment: Anti-leprotic activity against Mycobacterium leprae primary cultures at 4 weeks assessed as ATP level per 10^7 cells at 10.0 mg/L measured by bioluminescence assay (reference value: 314 +/- 46 pg).
In test [18] the test system is Mycobacterium leprae. As to the kind of experiment: Anti-leprotic activity against Mycobacterium leprae primary cultures at 4 weeks assessed as ATP level per 10^7 cells at 15.0 mg/L measured by bioluminescence assay (reference value: 314 +/- 46 pg).
The subject of test [19] is Mycobacterium leprae. As to the kind of experiment: Anti-leprotic activity against Mycobacterium leprae primary cultures at 4 weeks assessed as ATP level per 10^7 cells at 20.0 mg/L measured by bioluminescence assay (reference value: 314 +/- 46 pg).
Test [20] concerns Mycobacterium leprae. The test can be described thus: Anti-leprotic activity against Mycobacterium leprae primary cultures at 4 weeks assessed as [3H]thymidine uptake per 5 times 10^7 cells at 0.5 mg/L (reference value: 0.95 +/- 0.01 pmol).
In test [21] the test system is Mycobacterium leprae. The test can be described thus: Anti-leprotic activity against Mycobacterium leprae primary cultures at 4 weeks assessed as [3H]thymidine uptake per 5 times 10^7 cells at 1.0 mg/L (reference value: 0.95 +/- 0.01 pmol).
Test [22] deals with Mycobacterium leprae. The test can be described thus: Anti-leprotic activity against Mycobacterium leprae primary cultures at 4 weeks assessed as [3H]thymidine uptake per 5 times 10^7 cells at 5.0 mg/L (reference value: 0.95 +/- 0.01 pmol).
Test [23] deals with Mycobacterium leprae. As to the kind of experiment: Anti-leprotic activity against Mycobacterium leprae primary cultures at 4 weeks assessed as [3H]thymidine uptake per 5 times 10^7 cells at 10.0 mg/L (reference value: 0.95 +/- 0.01 pmol).
In test [24] the test system is Mycobacterium leprae. As to the kind of experiment: Anti-leprotic activity against Mycobacterium leprae primary cultures at 4 weeks assessed as [3H]thymidine uptake per 5 times 10^7 cells at 15.0 mg/L (reference value: 0.95 +/- 0.01 pmol).
For test [25], the system named is Mycobacterium leprae. As to the kind of experiment: Anti-leprotic activity against Mycobacterium leprae primary cultures at 4 weeks assessed as [3H]thymidine uptake per 5 times 10^7 cells at 20.0 mg/L (reference value: 0.95 +/- 0.01 pmol).
Test [26] has as its system Mycobacterium leprae. The test can be described thus: Anti-leprotic activity against Mycobacterium leprae subcultures at 4 weeks assessed as ATP level per 10^7 cells at 0.5 mg/L measured by bioluminescence assay (reference value: 462 +/- 64 pg).
Test [27] has as its system Mycobacterium leprae. The test can be described thus: Anti-leprotic activity against Mycobacterium leprae subcultures at 4 weeks assessed as ATP level per 10^7 cells at 1.0 mg/L measured by bioluminescence assay (reference value: 462 +/- 64 pg).
In test [28] the test system is Mycobacterium leprae. The test can be described thus: Anti-leprotic activity against Mycobacterium leprae subcultures at 4 weeks assessed as ATP level per 10^7 cells at 5.0 mg/L measured by bioluminescence assay (reference value: 462 +/- 64 pg).
For test [29], the system named is Mycobacterium leprae. As to the kind of experiment: Anti-leprotic activity against Mycobacterium leprae subcultures at 4 weeks assessed as ATP level per 10^7 cells at 10.0 mg/L measured by bioluminescence assay (reference value: 462 +/- 64 pg).
The subject of test [30] is Mycobacterium leprae. The test can be described thus: Anti-leprotic activity against Mycobacterium leprae subcultures at 4 weeks assessed as ATP level per 10^7 cells at 15.0 mg/L measured by bioluminescence assay (reference value: 462 +/- 64 pg).
Test [31] relates to Mycobacterium leprae. The test can be described thus: Anti-leprotic activity against Mycobacterium leprae subcultures at 4 weeks assessed as ATP level per 10^7 cells at 20.0 mg/L measured by bioluminescence assay (reference value: 462 +/- 64 pg).
Test [32] concerns Mycobacterium leprae. As to the kind of experiment: Anti-leprotic activity against Mycobacterium leprae subcultures at 4 weeks assessed as [3H]thymidine uptake per 5 times 10^7 cells at 0.5 mg/L (reference value: 1.28 +/- 0.14 pmol).
Test [33] relates to Mycobacterium leprae. As to the kind of experiment: Anti-leprotic activity against Mycobacterium leprae subcultures at 4 weeks assessed as [3H]thymidine uptake per 5 times 10^7 cells at 1.0 mg/L (reference value: 1.28 +/- 0.14 pmol).
Test [34] has as its system Mycobacterium leprae. As to the kind of experiment: Anti-leprotic activity against Mycobacterium leprae subcultures at 4 weeks assessed as [3H]thymidine uptake per 5 times 10^7 cells at 5.0 mg/L (reference value: 1.28 +/- 0.14 pmol).
The test system of test [35] is Mycobacterium leprae. The test can be described thus: Anti-leprotic activity against Mycobacterium leprae subcultures at 4 weeks assessed as [3H]thymidine uptake per 5 times 10^7 cells at 10.0 mg/L (reference value: 1.28 +/- 0.14 pmol).
The subject of test [36] is Mycobacterium leprae. As to the kind of experiment: Anti-leprotic activity against Mycobacterium leprae subcultures at 4 weeks assessed as [3H]thymidine uptake per 5 times 10^7 cells at 15.0 mg/L (reference value: 1.28 +/- 0.14 pmol).
The subject of test [37] is Mycobacterium leprae. The test can be described thus: Anti-leprotic activity against Mycobacterium leprae subcultures at 4 weeks assessed as [3H]thymidine uptake per 5 times 10^7 cells at 20.0 mg/L (reference value: 1.28 +/- 0.14 pmol).
Test [38] concerns Mycobacterium leprae. The test can be described thus: Antimicrobial activity against Mycobacterium leprae.
In test [39] the test system is Mycobacterium leprae. The test can be described thus: Anti-leprotic activity against Mycobacterium leprae infected in BALB/c weanling mouse assessed as bacteria killing at 100 mg/kg, ip administrated for 60 days and measured after 1 year by most probable number technique analysis relative to control.
The subject of test [40] is Mycobacterium leprae. The test can be described thus: Anti-leprotic activity against Mycobacterium leprae infected in BALB/c weanling mouse assessed as bacteria killing at 100 mg/kg, ip administrated for 60 days and measured after 1 year by Spearman-Karber technique analysis relative to control.

Regarding `Fc1ccc(/C=N/NC(=S)Nc2ccc(C(F)(F)F)cc2)cc1`, the MIC was determined as 200 µg/mL (≈ 586 µM) in [1]; 100 µg/mL (≈ 293 µM) in [2]; 1600 µg/mL (≈ 4690 µM) in [3]; 1600 µg/mL (≈ 4690 µM) in [4]; 800 µg/mL (≈ 2340 µM) in test [5]; 1600 µg/mL (≈ 4690 µM) in [6]. Also, the minimum inhibitory concentration (MIC) worked out at 1600 µg/mL (≈ 4690 µM) in test [7], 400 µg/mL (≈ 1170 µM) in test [8], 400 µg/mL (≈ 1170 µM) in [9] and 200 µg/mL (≈ 586 µM) in test [10].
`CC(=O)Nc1ccc(S(=O)(=O)c2ccc(NC(C)=O)cc2O)cc1`: the Time in test [11] stood at 126 days.
For `Nc1ccc(Cc2ccc(N)cc2)cc1`, in test [12], the Time was <10 days.
Consider `O=[N+]([O-])c1ccc(/C=N/NC(=S)Nc2ccc(C(F)(F)F)cc2)cc1`, for which the MIC was 100 µg/mL (≈ 271 µM) in test [1]; 400 µg/mL (≈ 1090 µM) in test [2]; 400 µg/mL (≈ 1090 µM) in [3]; 400 µg/mL (≈ 1090 µM) in test [4]; 400 µg/mL (≈ 1090 µM) in test [5]; 400 µg/mL (≈ 1090 µM) in [6]. The MIC came to 400 µg/mL (≈ 1090 µM) in [7], 400 µg/mL (≈ 1090 µM) in test [8], 400 µg/mL (≈ 1090 µM) in test [9] and 200 µg/mL (≈ 543 µM) in test [10].
As to `CC(=O)Nc1ccc(S(=O)(=O)c2ccc(NC(C)=O)cc2Cl)cc1`, the Time in test [13] was 85 days.
Regarding `CCOc1cc(Cc2cnc(N)nc2N)cc(OCC)c1-n1cccc1` [EPIROPRIM], the Activity was found to be 325 pg in [14]; 331 pg in test [15]; 283 pg in test [16]; 0 pg in [17]; 0 pg in test [18]; 0 pg in test [19]. In addition, the Activity in test [20] worked out at 1.12 pmol; in test [21], 1.44 pmol; in test [22], 0.73 pmol; in test [23] it was 0 pmol; in test [24] it was 0 pmol; in [25] it was 0 pmol. The Activity stood at 0.82 pg in test [26]; 0.95 pg in test [27]; 317 pg in [28]; 0 pg in test [29]; 0 pg in test [30]; 0 pg in test [31]. The Activity worked out at 0.413 pmol in test [32]; 0.45 pmol in test [33]; 0.88 pmol in test [34]; 0 pmol in test [35]; 0 pmol in test [36]; 0 pmol in test [37]. Further, the MIC in [38] is 10 µg/mL (≈ 28.3 µM).
On to `NCC[C@H](O)C(=O)N[C@@H]1C[C@H](N)[C@@H](O[C@H]2O[C@H](CN)[C@@H](O)[C@H](O)[C@H]2O)[C@H](O)[C@H]1O[C@H]1O[C@H](CO)[C@@H](O)[C@H](N)[C@H]1O` [AMIKACIN], for which the Activity was 97.3% in test [39] and 96% in [40].
